# Source: PubChem BioAssay AID504557 (Johns Hopkins Ion Channel Center, 2011)
# The source made the active and inactive calls.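 The calls were made as follows: active = blocks current through the Kir2.1 potassium channel at one or more tested doses and yields a dose response curve; inactive = no block at any dose, or no dose response.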
# Biological target: Inward rectifier potassium channel 2 (Mus musculus) (UniProt P35561)
# Assay: Kir2.1 thallium flux blockade potency – cell-based, FluxOR, SAR follow-up (AID 504557)
# Details: Kir2.1 stable cells, FluxOR thallium flux fluorescence
# Chain of Inward rectifier potassium channel 2 (Mus musculus) (P35561 whole entry, looked up): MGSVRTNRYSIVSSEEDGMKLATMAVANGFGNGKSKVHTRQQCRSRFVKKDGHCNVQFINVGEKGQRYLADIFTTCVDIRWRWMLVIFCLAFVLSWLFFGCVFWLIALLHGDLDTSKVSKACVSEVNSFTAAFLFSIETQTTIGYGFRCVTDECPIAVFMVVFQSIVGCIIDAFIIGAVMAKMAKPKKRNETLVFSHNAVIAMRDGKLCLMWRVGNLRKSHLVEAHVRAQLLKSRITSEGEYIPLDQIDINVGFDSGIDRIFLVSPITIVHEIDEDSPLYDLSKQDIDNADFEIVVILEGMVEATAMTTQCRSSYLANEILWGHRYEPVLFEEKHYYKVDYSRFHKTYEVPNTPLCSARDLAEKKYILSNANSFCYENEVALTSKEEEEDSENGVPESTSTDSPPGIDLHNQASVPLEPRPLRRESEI
row,SMILES,IC50
1,Cc1ccc(S(=O)(=O)N[C@@H](C)c2ccccc2)cc1,15.2 µM
2,c1ccc(COc2ccc(OCCCNC3CCCC3)cc2)cc1,11.8 µM
3,c1ccc(CNc2c3ccccc3nc3ccccc23)cc1,13.3 µM
4,C[C@H](NS(=O)(=O)c1cc(Cl)cc(Cl)c1O)c1ccccc1,34.1 µM
5,C[C@@H](NS(=O)(=O)c1ccc(Br)cc1)c1ccccc1,25.3 µM
6,Cc1ccc2nc(N3CCN(CCO)CC3)nc(-c3ccccc3)c2c1,13.9 µM
7,C[C@@H](NS(=O)(=O)c1ccccc1Br)c1ccccc1,13 µM
8,Cc1ccc2nc(NCc3ccccc3)[nH]c2c1,13.6 µM
9,C[C@H](NS(=O)(=O)c1ccccc1Br)c1ccccc1,12.9 µM
10,C[C@@H](NS(=O)(=O)c1ccc(Cl)cc1)c1ccccc1,13.4 µM

# Continued, values first:
row,IC50,SMILES
1,7.59 µM,C[C@@H](NS(=O)(=O)c1cccc(Br)c1)c1ccccc1
2,4.9 µM,C[C@H](NS(=O)(=O)c1ccccc1)c1ccccc1
3,6.93 µM,CC(NS(=O)(=O)c1ccc(Br)cc1)c1ccccc1 (configuration not stated)
4,7.6 µM,Cc1noc(C)c1COC(=O)CCN1c2ccccc2Sc2ccccc21
5,9.46 µM,Cc1ccc(S(=O)(=O)N[C@H](C)c2ccccc2)cc1
6,7.14 µM,C[C@H](NS(=O)(=O)c1ccc(Br)cc1)c1ccccc1
7,11.7 µM,C[C@H](NS(=O)(=O)c1ccc(Cl)cc1)c1ccccc1
8,11 µM,C[C@H](NS(=O)(=O)c1cccc(Br)c1)c1ccccc1
9,1.38 µM,Cc1ccc(C)c(OCCCNCc2ccccc2)c1
10,4.74 µM,C[C@H](NS(C)(=O)=O)c1ccccc1
11,7.57 µM,Cc1ccc(Nc2cc(C)nc3c(C)cccc23)cc1
12,0.679 µM,CC(O)CNCCCOc1cccc(Oc2ccccc2)c1 (configuration not stated)

# Same assay, conditions: Kir2.1 stable cells, FluxOR thallium flux fluorescence; at 71 µM (top of the series)
row,SMILES,"activity change, negative = inhibition"
1,C[C@@H](NS(C)(=O)=O)c1ccccc1,inactive
2,C[C@@H](NS(=O)(=O)c1ccccc1)c1ccccc1,inactive
3,C[C@@H](NS(=O)(=O)c1cc(Cl)cc(Cl)c1O)c1ccccc1,inactive
4,O=C(NCC1CCCCN1)c1cc(OCC(F)(F)F)ccc1OCC(F)(F)F (configuration not stated),inactive
5,O=S(=O)(c1ccc(F)cc1)N1CCCc2ccccc21,inactive
